Source: patent US9408854B2, “Methods and systems for pharmacogenomic treatment of cardiovascular conditions” (ROSTAQUO S.P.A., priority 2009, dated 2016)

Tested on: hypertensive patients
Assay: Pharmacogenomic study: change of office systolic blood pressure (DSBP5_0) after 5 weeks of rostafuroxin vs placebo, by genotype
Type: in vivo, human
Procedure: A pharmacogenomic study was performed to ascertain the effect of genetic variations on an individual response to rostafuroxin. The sample for the pharmacogenomic study consisted of 342 individuals that were genotyped with the Human1M array from Illumina using Human1M Duo CHIP genotyping Bead Chip according to procedure described in [Ref. 10, 11, 12]. Among the individuals, 169 were administered the placebo treatment and 173 the active drug (rostafuroxin) in the first period (5 weeks) with demographics as in [Ref 13]. In particular, patients were randomized to one of the following oral doses of rostafuroxin: 0.05, 0.15, 0.5, 1.5, or 5 mg/day for 5 weeks. Each dose had to be compared to a placebo in a crossover design.
For the above sample of individuals a genetic association analysis, was performed to associate the phenotype of the tested individuals with the SNPs detected in the individuals. The selected phenotype of interest was the blood pressure response. The SNPs selected for detection were the 1111170 SNPs on autosomal chromosomes of the individual.
The genetic analysis was performed according to a quantitative genetic association design where the phenotype of interest is a quantitative variable (QT), and the variables (factors) affecting the distribution of the phenotype of interest are SNPs, therapy (placebo, rostafuroxin) and the SNP*therapy interaction.
In particular, the quantitative phenotype selected for the statistical analyses was the difference in mmHg between the office Systolic Blood Pressure (SBP) at the end of first treatment period (SBP_5) and the office Systolic Blood Pressure at baseline after one month of run-in (SBP_0) and is herein also identified as DSBP5_0. The selected QT phenotype and other factors affecting distribution of the phenotype of interest were then analyzed according to the following quantitative trait interaction test Phenotype=SNP+therapy+SNP*therapy as illustrated in further details below.
In particular, in Table 2 the descriptive statistics of DSBP5_0 for the entire sample and for the patients treated with placebo and rostafuroxin are listed. The rather modest basal level of SBP can be explained in view of the recruitment of patients with “mild” hypertension (SBP range 140-179 mmHg), required by the inclusion of a placebo arm.
Those SNPs were further selected to identify the genotypes with the largest response to rostafuroxin compared to placebo by performing a Statistical ANOVA analysis using STATA software in placebo and rostafuroxin with DSBP5_0 as dependent variable and the candidate significant SNPs as independent variables. In particular, to select the genotypes of the interactions between two SNPs with the largest response to rostafuroxin compared to placebo, the Applicants performed an ANOVA statistics in placebo and rostafuroxin with DSBP5_0 as dependent variable and the interaction s between SNPs as independent variables. The Applicants report an example of this procedure in FIG. 5: interaction between rs8899 and rs4678. The Applicants selected the interaction between the genotype AA of rs8899 and the genotype BB of rs4678 because it presents the greatest remarkable decrement in the therapy group and not in the placebo group.
In particular, to select the genotypes with the largest response to rostafuroxin compared to placebo, the Applicants performed an ANOVA statistics (oneway) in placebo and rostafuroxin with DSBP5_0 as dependent variable and the significant SNPs as independent variables.

[1] = GWS SNP ga001619 (PIGR) genotype 1
[2] = GWS SNP rs188334 (FAIM3) genotype 1
[3] = GWS SNP rs721207 (LOC131691) genotype 3
[4] = GWS SNP rs748140 (PIGR) genotype 1
[5] = GWS SNP rs1110446 (TRIM31) genotype 1
[6] = GWS SNP rs1110446 (TRIM31) genotype 2
[7] = GWS SNP rs1362126 (HLA-F) genotype 3
[8] = GWS SNP rs1901139 (LOC644192) genotype 3
[9] = GWS SNP rs1998394 (LOC728316) genotype 3
[10] = GWS SNP rs2275531 (PIGR) genotype 3
[11] = GWS SNP rs2345088 (KCNS3) genotype 1
[12] = GWS SNP rs2345088 (KCNS3) genotype 2
[13] = GWS SNP rs2427832 (LOC649458) genotype 2
[14] = GWS SNP rs2461911 (LOC389970) genotype 1
[15] = GWS SNP rs2517718 (HLA-A) genotype 1
[16] = GWS SNP rs2555500 (LOC389174) genotype 1
[17] = GWS SNP rs2743951 (RP3-377H14.5) genotype 3
[18] = GWS SNP rs3087816 (SLC30A7) genotype 2
[19] = GWS SNP rs3893464 (HCG9) genotype 1
[20] = GWS SNP rs4710592 (RCADH5) genotype 3
[21] = GWS SNP rs4998662 (FAM46A) genotype 2
[22] = GWS SNP rs5013093 (HLA-G) genotype 1
[23] = GWS SNP rs6457110 (HCG9) genotype 1
[24] = GWS SNP rs6718282 (KCNS3) genotype 2
[25] = GWS SNP rs7216331 (COX10) genotype 2
[26] = GWS SNP rs7521668 (DPH5) genotype 1
[27] = GWS SNP rs7521668 (DPH5) genotype 2
[28] = GWS SNP rs8179654 (LOC642727) genotype 3

Q: What does the source list for `C[C@]12CC[C@H](O)C[C@H]1CC[C@@H]1[C@@H]2CC[C@]2(C)[C@@](O)(c3ccoc3)CC[C@]12O` [rostafuroxin, 17β-(3-furyl)-5β-androstane-3β,14β,17α-triol]?
A: higher response in blood pressure drop, low doses vs high doses (0.05 to 0.50 mg/day vs 1.5 to 5 mg/day): +50%; DELTA delta Therapy placebo [1]: 9.252 mmHg; DSBP5_0 therapy [1]: −13.615 mmHg; DELTA delta Therapy placebo [2]: 8.146 mmHg; DSBP5_0 therapy [2]: −11.82 mmHg; DELTA delta Therapy placebo [3]: 6.934 mmHg; DSBP5_0 therapy [3]: −11.58 mmHg; DELTA delta Therapy placebo [4]: 6.506 mmHg; DSBP5_0 therapy [4]: −11.28 mmHg; DELTA delta Therapy placebo [5]: 20.59 mmHg; DSBP5_0 therapy [5]: −16.37 mmHg; DELTA delta Therapy placebo [6]: 3.54 mmHg; DSBP5_0 therapy [6]: −10.13 mmHg; DELTA delta Therapy placebo [7]: 4.93 mmHg; DSBP5_0 therapy [7]: −10.29 mmHg; DELTA delta Therapy placebo [8]: 10.52 mmHg; DSBP5_0 therapy [8]: −12.11 mmHg; DELTA delta Therapy placebo [9]: 5.788 mmHg; DSBP5_0 therapy [9]: −10.51 mmHg; DELTA delta Therapy placebo [10]: 7.817 mmHg; DSBP5_0 therapy [10]: −12.18 mmHg; DSBP5_0 therapy (GWS SNP rs2326912 (TMEM200A) genotype 1): −11.7 mmHg; DELTA delta Therapy placebo [11]: 33.93 mmHg; DSBP5_0 therapy [11]: −30.5 mmHg; DELTA delta Therapy placebo [12]: 3.512 mmHg; DSBP5_0 therapy [12]: −10.69 mmHg; DELTA delta Therapy placebo [13]: 6.845 mmHg; DSBP5_0 therapy [13]: −10.38 mmHg; DELTA delta Therapy placebo [14]: 22.82 mmHg; DSBP5_0 therapy [14]: −20.6 mmHg; DELTA delta Therapy placebo [15]: 6.212 mmHg; DSBP5_0 therapy [15]: −11.83 mmHg; DELTA delta Therapy placebo [16]: 5.2 mmHg; DSBP5_0 therapy [16]: −10.52 mmHg; DELTA delta Therapy placebo [17]: 5.62 mmHg; DSBP5_0 therapy [17]: −11.17 mmHg; DELTA delta Therapy placebo [18]: 7.021 mmHg; DSBP5_0 therapy [18]: −13.044 mmHg; DELTA delta Therapy placebo [19]: 9.016 mmHg; DSBP5_0 therapy [19]: −10.99 mmHg; DELTA delta Therapy placebo [20]: 20.075 mmHg; DSBP5_0 therapy [20]: −23.825 mmHg; DELTA delta Therapy placebo [21]: 13.54 mmHg; DSBP5_0 therapy [21]: −15.81 mmHg; DELTA delta Therapy placebo [22]: 22.09 mmHg; DSBP5_0 therapy [22]: −20.49 mmHg; DELTA delta Therapy placebo [23]: 5.862 mmHg; DSBP5_0 therapy [23]: −10.35 mmHg; DSBP5_0 therapy (GWS SNP rs6718282 (KCNS3) genotype 1): −41.3 mmHg; DELTA delta Therapy placebo [24]: 13.825 mmHg; DSBP5_0 therapy [24]: −12.625 mmHg; DELTA delta Therapy placebo [25]: 13.91 mmHg; DSBP5_0 therapy [25]: −15.81 mmHg; DELTA delta Therapy placebo [26]: 28.95 mmHg; DSBP5_0 therapy [26]: −25 mmHg; DELTA delta Therapy placebo [27]: 7.021 mmHg; DSBP5_0 therapy [27]: −13.044 mmHg; DELTA delta Therapy placebo [28]: 8.442 mmHg; DSBP5_0 therapy [28]: −10.95 mmHg; DELTA delta Therapy placebo (GWS SNP rs9361863 (LOC728360) genotype 1): 19.6 mmHg
